Assay results reported in patent US4536505A, “Certain N-(pyridyl) indoles” (Ciba-Geigy Corporation, priority 1983, dated 1985).

Key:
[1] = bleeding time in the rat; type: in vivo; settings: about 1.0 mg/kg p.o.
Description: Indicative of the utility in thromboembolism, compounds of this invention also prolong bleeding time in the rat.

[2] = tested on: thromboxane B2; experiment: in vivo reduction of plasma levels of thromboxane (thromboxane B2) in rats after ionophore A23187; settings: rat, oral dose of 0.04 mg/kg or lower
Experimental: (§1) The inhibition of the synthesis and the reduction of plasma levels of thromboxane is determined in vivo on administration to rats in the following manner (as adapted from the procedures described by Tai et al. in Anal. Biochem. 87:343, 1978 and by Salmon in Prostaglandins 15:383, 1978):
(§2) Rats are dosed with vehicle or test drug and injected intravenously with ionophore A23187 (0.5 mg/kg) two hours later. Blood is collected for analysis 2 minutes after the ionophore injection. A single aliquot of each plasma sample is assayed for thromboxane B2 and another aliquot for 6-keto-PGF1 α, the stable metabolites of thromboxane A2 and prostacyclin (PGI2) respectively, by radioimmunoassay.

[3] = tested on: prostacyclin; experiment: in vivo plasma level of prostacyclin (6-keto-PGF1 α) in rats after ionophore A23187; settings: rat, oral dose of 0.04 mg/kg or lower
Experimental: as §1, §2

[4] = molecular target: T1, prostaglandin cyclooxygenase (Ovis aries, UniProt P05979); experiment: in-vitro effect on prostaglandin cyclooxygenase; type: biochemical, sheep (seminal vesicle microsomes); settings: 50% reduction in the amount of PGE2 synthesized; read-out: IC50 for cyclooxygenase inhibition
T1 construct: Lyophilized sheep seminal vesicle microsomes are utilized as the prostaglandin-synthesizing enzyme preparation; from tissue; host or cells: lyophilized sheep seminal vesicle microsomes
T1 sequence (P05979 25-600): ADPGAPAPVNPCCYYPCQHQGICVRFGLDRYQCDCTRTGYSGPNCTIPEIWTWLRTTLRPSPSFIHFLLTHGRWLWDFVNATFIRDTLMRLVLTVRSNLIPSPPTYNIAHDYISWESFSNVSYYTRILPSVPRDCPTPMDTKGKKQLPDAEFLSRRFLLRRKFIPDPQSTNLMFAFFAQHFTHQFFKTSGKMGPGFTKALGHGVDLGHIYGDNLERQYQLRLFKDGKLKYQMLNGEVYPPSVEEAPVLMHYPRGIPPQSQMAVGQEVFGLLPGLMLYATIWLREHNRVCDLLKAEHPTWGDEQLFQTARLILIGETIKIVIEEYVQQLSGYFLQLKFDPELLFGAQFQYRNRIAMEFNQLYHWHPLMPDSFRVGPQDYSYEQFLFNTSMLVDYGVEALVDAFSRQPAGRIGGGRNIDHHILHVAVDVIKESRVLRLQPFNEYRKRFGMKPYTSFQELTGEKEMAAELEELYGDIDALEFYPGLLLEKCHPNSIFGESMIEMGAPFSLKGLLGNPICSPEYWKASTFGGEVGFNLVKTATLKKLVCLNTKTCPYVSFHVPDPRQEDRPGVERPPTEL
Experimental: The in-vitro effect on prostaglandin cyclooxygenase is measured by a modification of the method of Takeguchi et al. described in Biochemistry 10, 2372 (1971); the testing procedure is as follows:
Lyophilized sheep seminal vesicle microsomes are utilized as the prostaglandin-synthesizing enzyme preparation. The conversion of ^14 C-arachidonic acid to PGE2 is measured. Test compounds (dissolved in buffer, or if necessary, in a small amount of ethanol) are added to the incubation mixture. The prostaglandins are extracted and separated by thin-layer chromatography; the plates are scanned, the radioactive zones corresponding to PGE2 are transferred to liquid scintillation vials and counted for radioactivity. IC50 values for inhibition are determined graphically as the concentration of test compound causing a 50% reduction in the amount of PGE2 synthesized.

[5] = molecular target: T2, thromboxane synthetase (Homo sapiens, UniProt P24557); experiment: in vitro inhibition of the thromboxane synthetase enzyme; type: biochemical, human (lysed human platelets); settings: 30 minutes incubation; ratio T×B2/PGF2 α+β reduced to 50% of control
T2 construct: crude microsomal preparation of thromboxane synthetase from lysed human platelets; from tissue; host or cells: lysed human platelets, crude microsomal preparation
T2 sequence (P24557 1-533): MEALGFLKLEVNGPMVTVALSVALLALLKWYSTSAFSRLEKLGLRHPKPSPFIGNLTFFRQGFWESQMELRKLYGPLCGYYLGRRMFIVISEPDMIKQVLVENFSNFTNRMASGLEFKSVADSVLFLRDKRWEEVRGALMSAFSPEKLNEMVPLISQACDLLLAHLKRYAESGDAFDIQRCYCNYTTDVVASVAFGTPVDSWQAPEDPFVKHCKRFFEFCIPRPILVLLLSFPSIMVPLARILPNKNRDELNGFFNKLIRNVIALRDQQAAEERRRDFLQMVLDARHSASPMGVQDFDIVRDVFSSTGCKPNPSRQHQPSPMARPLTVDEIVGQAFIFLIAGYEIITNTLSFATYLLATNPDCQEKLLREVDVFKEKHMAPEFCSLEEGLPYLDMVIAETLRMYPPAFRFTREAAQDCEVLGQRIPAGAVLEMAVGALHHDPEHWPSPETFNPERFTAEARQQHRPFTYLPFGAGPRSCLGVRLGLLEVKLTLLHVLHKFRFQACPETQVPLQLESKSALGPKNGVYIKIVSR
Experimental: Res. Comm. 74, 1432 (1977); the testing procedure is as follows: ^14 C-Arachidonic acid is incubated with an enzyme consisting of solubilized and partially purified prostaglandin cyclo-oxygenase from sheep seminal vesicles and a crude microsomal preparation of thromboxane synthetase from lysed human platelets. The test compound (dissolved in buffer, or if necessary, in a small amount of ethanol) is added to the incubation medium. At the end of the incubation period (30 minutes), Prostaglandin E2 (PGE2) is reduced to a mixture of Prostaglandin F2 α and F2 β (PGF2 α+β) by addition of sodium borohydride. The radioactive products and excess substrate are extracted into ethyl acetate; the extract is evaporated to dryness; the residue is dissolved in acetone, spotted on thin-layer plates and chromatographed in the solvent system toluene:acetone:glacial acetic acid (100 volumes:100 volumes:3 volumes). The radioactive zones are located; those corresponding to Thromboxane B2 (T×B2) and PGF2 α+β are transferred to liquid scintillation vials and counted. The ratio of counts for T×B2 /PGF2 α+β is calculated for each concentration of test compound and IC50 values are determined graphically as the concentration of test compound at which the ratio of T×B2 /PGF2 α+β is reduced to 50% of the control value.

[6] = molecular target: T3, lipoxygenase (Cavia porcellus, UniProt A0A286X958); experiment: lipoxygenase inhibition in guinea pig peritoneal neutrophils; type: cell-based; settings: 14C-arachidonic acid (4 μM), A-23187 (2 μM), 37° C.; LTB4 and 5-HETE
T3 construct: Guinea pig peritoneal neutrophils; endogenous in cells; host or cells: guinea pig peritoneal neutrophils (elicited with sodium caseinate)
T3 sequence (A0A286X958 1-674): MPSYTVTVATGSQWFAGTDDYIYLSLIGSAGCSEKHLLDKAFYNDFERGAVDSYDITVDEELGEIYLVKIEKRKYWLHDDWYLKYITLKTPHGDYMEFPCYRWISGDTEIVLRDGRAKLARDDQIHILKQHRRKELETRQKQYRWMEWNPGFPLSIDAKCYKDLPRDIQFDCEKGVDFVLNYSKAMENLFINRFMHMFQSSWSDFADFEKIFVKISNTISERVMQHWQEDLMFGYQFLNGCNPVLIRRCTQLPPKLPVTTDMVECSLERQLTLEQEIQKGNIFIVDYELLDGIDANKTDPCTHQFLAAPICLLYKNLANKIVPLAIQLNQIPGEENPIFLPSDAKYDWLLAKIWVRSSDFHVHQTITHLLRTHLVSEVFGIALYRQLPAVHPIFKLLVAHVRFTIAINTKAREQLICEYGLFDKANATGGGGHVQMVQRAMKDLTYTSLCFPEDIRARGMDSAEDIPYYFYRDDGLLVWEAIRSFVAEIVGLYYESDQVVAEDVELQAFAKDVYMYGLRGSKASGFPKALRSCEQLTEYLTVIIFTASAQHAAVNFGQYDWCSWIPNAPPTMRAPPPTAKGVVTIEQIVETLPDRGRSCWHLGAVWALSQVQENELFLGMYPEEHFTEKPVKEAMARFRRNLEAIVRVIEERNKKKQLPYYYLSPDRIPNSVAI
Experimental: Guinea pig peritoneal neutrophils (elicited by an i.p. injection of sodium caseinate 17 hours prior to harvesting) are preincubated with indomethacin (1 μM) and test drugs for 5 minutes at 37° C. ^14 C-arachidonic acid (4 μM) and calcium ionophore A-23187 (2 μM) are added and the samples are incubated for another 5 minutes at 37° C. The reaction is terminated by the addition of 1N HCl and the products are extracted with ethyl acetate and separated by thin-layer chromatography; the plates are scanned and the radioactive zones corresponding to LTB4 and 5-HETE are scraped off, transferred to liquid scintillation vials and counted for radioactivity.

IC50 [4] [mM] | IC50 [5] [nM] | Structure (SMILES) | prolongation of bleeding time [1] | decrease of plasma concentration of thromboxane B2 [2] | increase in the plasma level of prostacyclin [3] | IC50 [6] [µM]
> 1 | ~1.1 | O=C(O)CCCCc1cn(-c2cccnc2)c2ccccc12 [3-(4-carboxybutyl)-N-(3-pyridyl)indole] | prolongs bleeding time | over 50% | approximately 5 fold | 
 | ~4 | O=C(O)CCCCCc1cn(-c2cccnc2)c2ccccc12 [3-(5-carboxypentyl)-N-(3-pyridyl)indole] |  |  |  | 

Structure (SMILES) | IC50 [4] [mM] | IC50 [5] [nM] | prolongation of bleeding time [1] | decrease of plasma concentration of thromboxane B2 [2] | increase in the plasma level of prostacyclin [3] | IC50 [6] [µM]
O=C(O)CCCCc1cn(-c2cccnc2)c2ccc(Cl)cc12 [3-(4-carboxybutyl)-5-chloro-N-(3-pyridyl)indole] |  | ~2.6 |  |  |  | ~30
